According to PubChem BioAssay (NCI):
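Grown in 96-well plates, cells were treated for 48 hours with each compound at five concentrations. Insufficient inhibition: endpoint recorded as highest concentration tested. Here, GI50 denotes the concentration required for 50% inhibition of growth. TGI: concentration producing complete growth inhibition.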

What was measured:
Experiment in all cases: NCI-60 cell line screen, 48 h
LOX IMVI melanoma = system: LOX IMVI melanoma
MDA-MB-231 breast = system: MDA-MB-231 breast
MOLT-4 leukemia = system: MOLT-4 leukemia
NCI-H522 lung = system: NCI-H522 lung
OVCAR-4 ovarian = system: OVCAR-4 ovarian
SN12C renal = system: SN12C renal
TK-10 renal = system: TK-10 renal
UACC-257 melanoma = system: UACC-257 melanoma
UO-31 renal = system: UO-31 renal
RPMI-8226 leukemia = system: RPMI-8226 leukemia

Compound	TGI (LOX IMVI melanoma)	TGI (MDA-MB-231 breast)	TGI (MOLT-4 leukemia)	TGI (NCI-H522 lung)	TGI (OVCAR-4 ovarian)	TGI (SN12C renal)	TGI (TK-10 renal)	TGI (UACC-257 melanoma)	TGI (UO-31 renal)	TGI (RPMI-8226 leukemia)	GI50 (LOX IMVI melanoma)	GI50 (MOLT-4 leukemia)	GI50 (NCI-H522 lung)	GI50 (OVCAR-4 ovarian)	GI50 (RPMI-8226 leukemia)	GI50 (SN12C renal)	GI50 (UACC-257 melanoma)	GI50 (UO-31 renal)
C=C(CC[C@@H](C(=O)O)[C@H]1[C@H](O)C[C@@]2(C)C3=CC[C@@H](C(=C)C)[C@](C)(CCC(=O)O)C3=CC[C@]12C)C(C)C	38.4 µM	40.7 µM	64.4 µM	38.3 µM	36.3 µM	31.9 µM	32.3 µM	30.6 µM	31.5 µM	–	–	–	–	–	–	–	–	–
CCCCOP1(=O)C=C(C)C(=C(Cl)Cl)C(C)=C1 (stereo not given)	33.1 µM	–	> 48.2 µM	11 µM	> 91.1 µM	34.8 µM	44.1 µM	11.5 µM	45.3 µM	> 24.4 µM	–	–	–	–	–	–	–	–
c1ccc2c(c1)CCc1cc3cc4c(nc3nc1-2)-c1ccccc1CC4	> 100 µM	–	> 100 µM	> 100 µM	–	> 100 µM	> 100 µM	> 100 µM	> 100 µM	> 100 µM	–	–	–	–	–	–	–	–
Cc1ccc(N2CCc3c(C)c(C#N)c4nc5ccccc5n4c32)cc1	> 100 µM	–	–	> 100 µM	> 100 µM	> 100 µM	> 100 µM	> 100 µM	> 100 µM	–	–	–	–	–	–	–	–	–
O=C1COc2ccc([N+](=O)[O-])cc2C(=O)C1	> 10 µM	> 10 µM	> 10 µM	–	> 10 µM	> 10 µM	> 10 µM	> 10 µM	> 10 µM	> 10 µM	–	–	–	–	–	–	–	–
C1CCC(OC2CSC2)OC1 (stereo not given)	> 100 µM	> 100 µM	> 100 µM	> 100 µM	> 100 µM	> 100 µM	> 100 µM	> 100 µM	> 100 µM	–	–	–	–	–	–	–	–	–
COc1cccc(/C=N/[N-]C(N)=O)c1[O-].[Ni+2].[OH3+].c1cnc2c(c1)ccc1cccnc12	> 100 µM	–	> 100 µM	–	> 100 µM	> 100 µM	> 100 µM	> 100 µM	> 100 µM	> 100 µM	–	–	–	–	–	–	–	–
C=C1C(=O)OCC2C(C(=O)O)=CC3C(C)C(C)=CC123 (stereo not given)	27.9 µM	–	29.6 µM	8.18 µM	20.6 µM	23.6 µM	–	46 µM	39.5 µM	26.8 µM	–	–	–	–	–	–	–	–
CC(CO)C1C[C@H](O)[C@@]2(C)CC(=O)C=C(CO)[C@@H]2C1 (stereo not given in full)	> 100 µM	> 100 µM	> 100 µM	–	> 100 µM	> 100 µM	> 100 µM	> 100 µM	> 100 µM	–	–	–	–	–	–	–	–	–
N#Cc1c(N2CCCC2)ncn(Cc2ccccc2)c1=O	> 100 µM	–	> 100 µM	> 100 µM	> 100 µM	> 100 µM	> 100 µM	> 100 µM	> 100 µM	> 100 µM	–	–	–	–	–	–	–	–
COc1ccc(-c2c(N)n(-c3cccc(C(=O)O)c3)c(=O)c3cc([N+](=O)[O-])ccc23)cc1	> 100 µM	–	> 100 µM	> 100 µM	> 100 µM	–	> 100 µM	> 100 µM	> 100 µM	> 100 µM	–	–	–	–	–	–	–	–
O=[Se](=O)c1ccccc1.O=[Se](=O)c1ccccc1.[Cu]	19.5 µM	–	65.8 µM	31.5 µM	34.5 µM	29.5 µM	–	30.4 µM	32.5 µM	63.1 µM	7.65 µM	12 µM	17.3 µM	18.7 µM	17 µM	15.8 µM	16 µM	18 µM
NCCNc1cccc2ccccc12	> 100 µM	–	–	> 100 µM	> 100 µM	> 100 µM	> 100 µM	> 100 µM	> 100 µM	> 100 µM	–	–	–	–	–	–	–	–
CSC1=C(C#N)C(=O)N(c2ccc(C)cc2)C(=S)C1C#N (stereo not given)	> 100 µM	> 100 µM	> 100 µM	> 100 µM	> 100 µM	> 100 µM	> 100 µM	> 100 µM	–	–	–	–	–	–	–	–	–	–
Cc1cc(-c2nc3ccccc3s2)ccc1NC(=O)[C@H](C)N	> 100 µM	32.6 µM	37.8 µM	75.8 µM	26.2 µM	27.9 µM	–	33.2 µM	19.1 µM	–	–	–	–	–	–	–	–	–
CC(=O)O[C@]12CCCC1C1(O)C(O)CCCC12 (stereo not given in full)	> 100 µM	–	> 100 µM	> 100 µM	> 100 µM	> 100 µM	> 100 µM	> 100 µM	> 100 µM	> 100 µM	–	–	–	–	–	–	–	–
CNC(=O)c1cc(NC(=O)N(CCC#N)CCN(C(=O)N[C@@H](Cc2ccccc2)C(=O)N[C@@H](CC(C)C)C(=O)NC)c2ccccc2)ccc1OC	> 100 µM	> 60.3 µM	> 100 µM	–	> 100 µM	> 85.1 µM	> 100 µM	51 µM	> 100 µM	> 88.3 µM	–	–	–	–	–	–	–	–
